Results from US20230303553A1, “CDK6/DYRK2 DUAL-TARGET INHIBITOR, AND PREPARATION METHOD THEREFOR AND USE THEREOF” (JIANGSU TASLY DIYI PHARMACEUTICAL CO., LTD., priority 2021, published 2023).
Structures can show the parent of a compound that is named as a salt.

How the values were obtained:
[1] = target: CDK6 kinase (Homo sapiens (Human), UniProt Q00534); assay: CDK6 kinase activity, Lance Ultra TR-FRET; assay type: biochemical
[2] = target: DYRK2 kinase (Homo sapiens (Human), UniProt Q92630); assay: DYRK2 kinase activity, 33P-ATP / Woodtide substrate; assay type: biochemical
Chain of DYRK2 kinase (Q92630 whole entry): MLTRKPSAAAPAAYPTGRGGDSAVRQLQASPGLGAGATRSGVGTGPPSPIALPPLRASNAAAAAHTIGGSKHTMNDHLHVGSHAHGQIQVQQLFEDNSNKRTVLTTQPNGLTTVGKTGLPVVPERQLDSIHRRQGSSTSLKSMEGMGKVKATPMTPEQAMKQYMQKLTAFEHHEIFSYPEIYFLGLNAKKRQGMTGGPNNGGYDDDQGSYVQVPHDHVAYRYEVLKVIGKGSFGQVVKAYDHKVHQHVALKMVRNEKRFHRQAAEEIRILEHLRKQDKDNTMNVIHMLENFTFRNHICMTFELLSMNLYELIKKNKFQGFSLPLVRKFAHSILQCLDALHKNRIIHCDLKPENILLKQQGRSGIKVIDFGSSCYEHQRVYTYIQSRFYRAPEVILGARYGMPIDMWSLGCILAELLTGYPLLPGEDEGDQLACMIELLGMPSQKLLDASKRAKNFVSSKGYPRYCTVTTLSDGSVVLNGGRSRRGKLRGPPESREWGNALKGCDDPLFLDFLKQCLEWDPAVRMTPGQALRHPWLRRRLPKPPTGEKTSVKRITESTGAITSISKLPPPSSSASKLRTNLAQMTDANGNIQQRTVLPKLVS

Chain of CDK6 kinase (Q00534 whole entry): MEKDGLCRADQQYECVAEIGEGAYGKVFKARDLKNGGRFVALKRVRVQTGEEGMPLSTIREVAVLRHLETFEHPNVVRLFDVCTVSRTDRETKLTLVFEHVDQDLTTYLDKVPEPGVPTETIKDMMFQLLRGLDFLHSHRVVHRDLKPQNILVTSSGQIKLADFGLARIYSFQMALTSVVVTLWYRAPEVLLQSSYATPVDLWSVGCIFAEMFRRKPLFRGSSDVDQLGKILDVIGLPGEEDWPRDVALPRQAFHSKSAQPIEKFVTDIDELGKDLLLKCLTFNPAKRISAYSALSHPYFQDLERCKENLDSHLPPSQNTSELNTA
Chain of CDK6 kinase (P24385 whole entry partner): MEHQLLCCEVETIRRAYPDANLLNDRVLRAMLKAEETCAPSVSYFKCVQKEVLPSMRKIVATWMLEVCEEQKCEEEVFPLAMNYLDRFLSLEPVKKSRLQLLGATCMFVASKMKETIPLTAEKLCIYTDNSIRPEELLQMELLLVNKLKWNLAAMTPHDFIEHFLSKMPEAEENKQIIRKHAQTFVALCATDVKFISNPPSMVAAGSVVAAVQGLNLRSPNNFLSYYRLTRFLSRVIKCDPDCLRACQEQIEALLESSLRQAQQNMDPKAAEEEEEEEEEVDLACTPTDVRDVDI

Row | Compound | IC50 [1] [nM] | IC50 [2] [nM]
1 | CCN1CCN(C(=O)c2ccc(Nc3ncc(F)c(-c4ccc5ncsc5c4)n3)nc2)CC1 [Example 1, (6-((4-(benzothiazole-6-yl)-5-fluoropyrimidine-2-yl)amino)pyridine-3-yl)(4-ethylpiperazine-1-yl)ketone] | 144 | –
2 | CCN1CCN(Cc2ccc(Nc3ncc(F)c(-c4ccc5ncsc5c4)n3)nc2)CC1 [Example 2, 4-(benzothiazole-6-yl)-N-(5-((4-ethylpiperazine-1-yl)methyl)pyridine-2-yl)-5-fluoropyrimidine-2-amine] | 244 | –
3 | CC(C)(C)OC(=O)N1CCN(Cc2ccc(Nc3ncc(F)c(-c4ccc5ncsc5c4)n3)nc2)CC1 [Example 3, tert-butyl 4-((6-((4-(benzothiazole-6-yl)-5-fluoropyrimidine-2-yl)amino)pyridine-3-yl)methyl)piperazine-1-carboxylate] | 272 | –
4 | Fc1cnc(Nc2ccc(CN3CCNCC3)cn2)nc1-c1ccc2ncsc2c1 [Example 4, 4-(benzothiazole-6-yl)-5-fluoro-N-(5-(piperazine-1-ylmethyl)pyridine-2-yl)pyrimidine-2-amine hydrochloride] | 268 | –
5 | CC(C)(C)OC(=O)N1CCN(c2ccc(Nc3ncc(F)c(-c4ccc5ncsc5c4)n3)nc2)CC1 [Example 7, tert-butyl 4-(6-((4-(benzothiazole-6-yl)-5-fluoropyrimidine-2-yl)amino)pyridine-3-yl)piperazine-1-carboxylate] | > 10000 | –
6 | Fc1cnc(Nc2ccc(N3CCNCC3)cn2)nc1-c1ccc2ncsc2c1 [Example 8, 4-(benzothiazole-6-yl)-5-fluoro-N-(5-(piperazine-1-yl)pyridine-2-yl)pyrimidine-2-amine hydrochloride] | 129 | 85
7 | CCOC(=O)N1CCN(Cc2ccc(Nc3ncc(F)c(-c4ccc5ncsc5c4)n3)nc2)CC1 [Example 10, ethyl 4-((6-((4-(benzothiazole-6-yl)-5-fluoropyrimidine-2-yl)amino)pyridine-3-yl)methyl)piperazine-1-carboxylate] | 169 | –
8 | CC(C)N1CCN(Cc2ccc(Nc3ncc(F)c(-c4ccc5ncsc5c4)n3)nc2)CC1 [Example 11, 4-(benzothiazole-6-yl)-5-fluoro-N-(5-((4-isopropylpiperazine-1-yl)methyl)pyridine-2-yl)pyrimidine-2-amine] | 175 | 263
9 | Cc1nc2ccc(-c3nc(Nc4ccc(C(=O)N5CCN(C(=O)OC(C)(C)C)CC5)cn4)ncc3F)cc2s1 [Example 16, tert-butyl 4-(6-((5-fluoro-4-(2-methylbenzothiazole-6-yl)pyrimidine-2-yl)amino)nicotinoyl)piperazine-1-carboxylate] | 86 | –
10 | Cc1nc2ccc(-c3nc(Nc4ccc(C(=O)N5CCNCC5)cn4)ncc3F)cc2s1 [Example 17, (6-((5-fluoro-4-(2-methylbenzothiazole-6-yl)pyrimidine-2-yl)amino)pyridine-3-yl)(piperazine-1-yl)ketone hydrochloride] | 93 | 27
11 | CCN1CCN(Cc2ccc(Nc3ncc(F)c(-c4ccc5nc(N(C)C)sc5c4)n3)nc2)CC1 [Example 30, 6-(2-((5-((4-ethylpiperazine-1-yl)methyl)pyridine-2-yl)amino)-5-fluoropyrimidine-4-yl)-N,N-dimethylbenzothiazole-2-amine] | 254 | –
12 | CN(C)c1nc2ccc(-c3nc(Nc4ccc(CN5CCN(C(=O)OC(C)(C)C)CC5)cn4)ncc3F)cc2s1 [Example 32, tert-butyl 4-((6-((4-(2-(dimethylamino)benzothiazole-6-yl)-5-fluoropyrimidine-2-yl)amino)pyridine-3-yl)methyl)piperazine-1-carboxylate] | > 10000 | –
13 | CN(C)c1nc2ccc(-c3nc(Nc4ccc(CN5CCNCC5)cn4)ncc3F)cc2s1 [Example 33, 6-(5-fluoro-2-((5-(piperazine-1-ylmethyl)pyridine-2-yl)amino)pyrimidine-4-yl)-N,N-dimethylbenzothiazole-2-amine hydrochloride] | 59 | –
14 | CN(C)c1nc2ccc(-c3nc(Nc4ccc(C(=O)N5CCN(C(=O)OC(C)(C)C)CC5)cn4)ncc3F)cc2s1 [Example 34, tert-butyl 4-(6-((4-(2-(dimethylamino)benzothiazole-6-yl)-5-fluoropyrimidine-2-yl)amino)nicotinoyl)piperazine-1-carboxylate] | > 10000 | –
15 | CN(C)c1nc2ccc(-c3nc(Nc4ccc(C(=O)N5CCNCC5)cn4)ncc3F)cc2s1 [Example 35, (6-((4-(2-(dimethylamino)benzothiazole-6-yl)-5-fluoropyrimidine-2-yl)amino)pyridine-3-yl)(piperazine-1-yl)ketone hydrochloride] | 41 | –
16 | CC(C)N1CCN(Cc2ccc(Nc3ncc(F)c(-c4ccc5nc(N(C)C)sc5c4)n3)nc2)CC1 [Example 36, 6-(5-fluoro-2-((5-((4-isopropylpiperazine-1-yl)methyl)pyridine-2-yl)amino)pyrimidine-4-yl)-N,N-dimethylbenzothiazole-2-amine] | 142 | –
17 | CN(C)c1nc2ccc(-c3nc(Nc4ccc(CN5CCN(S(C)(=O)=O)CC5)cn4)ncc3F)cc2s1 [Example 37, 6-(5-fluoro-2-((5-((4-(methanesulfonyl)piperazine-1-yl)methyl)pyridine-2-yl)amino)pyrimidine-4-yl)-N,N-dimethylbenzothiazole-2-amine] | > 10000 | –

The next lines start with the values.

Row | IC50 [1] [nM] | IC50 [2] [nM] | Compound
18 | > 1000 | – | CCOC(=O)N1CCN(Cc2ccc(Nc3ncc(F)c(-c4ccc5nc(N(C)C)sc5c4)n3)nc2)CC1 [Example 38, ethyl 4-((6-((4-(2-(dimethylamino)benzothiazole-6-yl)-5-fluoropyrimidine-2-yl)amino)pyridine-3-yl)methyl)piperazine-1-carboxylate]
19 | 57 | 16 | CC(C)N1CCN(C(=O)c2ccc(Nc3ncc(F)c(-c4ccc5nc(N(C)C)sc5c4)n3)nc2)CC1 [Example 39, (6-((4-(2-(dimethylamino)benzothiazole-6-yl)-5-fluoropyrimidine-2-yl)amino)pyridine-3-yl)(4-isopropylpiperazine-1-yl)ketone]
20 | > 1000 | – | CN(C)c1nc2ccc(-c3nc(Nc4ccc(N5CCN(C(=O)OC(C)(C)C)CC5)cn4)ncc3F)cc2s1 [Example 40, tert-butyl 4-(6-((4-(2-(dimethylamino)benzothiazole-6-yl)-5-fluoropyrimidine-2-yl)amino)pyridine-3-yl)piperazine-1-carboxylate]
21 | 61 | – | CN(C)c1nc2ccc(-c3nc(Nc4ccc(N5CCNCC5)cn4)ncc3F)cc2s1 [Example 41, 6-(5-fluoro-2-((5-(piperazine-1-yl)pyridine-2-yl)amino)pyrimidine-4-yl)-N,N-dimethylbenzothiazole-2-amine hydrochloride]
22 | 15 | 197 | CCN1CCN(Cc2ccc(Nc3ncc(F)c(-c4ccc5nc(N(CC)CC)sc5c4)n3)nc2)CC1 [Example 43]
23 | > 1000 | – | CCN(CC)c1nc2ccc(-c3nc(Nc4ccc(CN5CCN(C(=O)OC(C)(C)C)CC5)cn4)ncc3F)cc2s1 [Example 44, tert-butyl 4-((6-((4-(2-(diethylamino)benzothiazole-6-yl)-5-fluoropyrimidine-2-yl)amino)pyridine-3-yl)methyl)piperazine-1-carboxylate]
24 | 45 | 290 | CCN(CC)c1nc2ccc(-c3nc(Nc4ccc(CN5CCNCC5)cn4)ncc3F)cc2s1 [Example 45, N,N-diethyl-6-(5-fluoro-2-((5-(piperazine-1-ylmethyl)pyridine-2-yl)amino)pyrimidine-4-yl)benzothiazole-2-amine hydrochloride]
25 | > 10000 | – | CCN(CC)c1nc2ccc(-c3nc(Nc4ccc(CN5CCN(S(C)(=O)=O)CC5)cn4)ncc3F)cc2s1 [Example 48, N,N-diethyl-6-(5-fluoro-2-((5-((4-(methanesulfonyl)piperazine-1-yl)methyl)pyridine-2-yl)amino)pyrimidine-4-yl)benzothiazole-2-amine]
26 | > 10000 | – | CCOC(=O)N1CCN(Cc2ccc(Nc3ncc(F)c(-c4ccc5nc(N(CC)CC)sc5c4)n3)nc2)CC1 [Example 49, ethyl 4-((6-((4-(2-(diethylamino)benzothiazole-6-yl)-5-fluoropyrimidine-2-yl)amino)pyridine-3-yl)methyl)piperazine-1-carboxylate]
27 | 31 | – | CCN(CC)c1nc2ccc(-c3nc(Nc4ccc(CN5CCN(C(C)C)CC5)cn4)ncc3F)cc2s1 [Example 50]
28 | 8 | – | CCN(CC)c1nc2ccc(-c3nc(Nc4ccc(C(=O)N5CCN(C(C)C)CC5)cn4)ncc3F)cc2s1 [Example 51, (6-((4-(2-(diethylamino)benzothiazole-6-yl)-5-fluoropyrimidine-2-yl)amino)pyridine-3-yl)(4-isopropylpiperazine-1-yl)ketone]
